The test system of assay [1] is M. tuberculosis H37Rv. Description: microbe, parasite or virus in culture. It is filed as cell-based. The conditions noted are these: for inhibition of growth at 12.5 µg/mL: Mycobacterium tuberculosis, at 12.5% μg/ml (so in the source), read-out: Primary Screen PI (% inhibition of growth); for activity against M. tuberculosis H37Rv in the primary screen: in words.
In assay [2] the test system is M. tuberculosis H37Rv. Description: MIC99 determination, BACTEC 460 radiometric system. It is filed as cell-based. To be noted: Mycobacterium tuberculosis; for MIC99: Table 3, read-out: Screen 2 MIC99.
The mark [3] stands for this setting: M. tuberculosis H37Rv, screen concentration 12.5 g/ml [sic], Table 8.
Where [4] appears, read: M. tuberculosis H37Rv, Table 8, read-out: MIC.

≈ marks a conversion by molar mass, not a printed value. Like-named read-outs stand apart in the source and are kept apart here. Bounds are passed on as bounds.

One may read the inhibition of growth as the relative decrease from the control value, in per cent. The MIC99 is the lowest concentration that inhibits either 99% of growth or 99% of the strains tested, depending on the study. Consider `CCOC(=O)Nc1cc2c(c(N)n1)N=C(c1ccccc1)C(c1ccccc1)O2` (centres unmarked) [CAO-040, (5-Amino-2,3-diphenyl-2H-pyrido-[4,3b][1,4]oxazin-7-yl)-carbamic acid ethyl ester], for which, in the assay with M. tuberculosis H37Rv [1] (M. tuberculosis H37Rv), the inhibition of growth at 12.5 µg/mL was determined as 90%. In addition, the “activity against M. tuberculosis H37Rv in the primary screen” value with M. tuberculosis H37Rv [1] was “demonstrated activity”. The MIC99 in the assay on M. tuberculosis H37Rv [2] (M. tuberculosis H37Rv) turned out to be 6.25 µg/mL (≈ 16.1 µM).

`CCN(CC)S(=O)(=O)c1ccc(CNc2cc(N)nc3nc(-c4ccccc4)c(-c4ccccc4)nc23)cc1` [Compound 4427-143, 4-[(6-Amino-2,3-diphenyl-pyrdo[2,3b]pyrazin-8-yl-amino)-methyl]-N,N-diethyl-benzenesulfonamide]: in the assay on M. tuberculosis H37Rv [1] (M. tuberculosis H37Rv), the inhibition of growth at 12.5 µg/mL was 99%. The “activity against M. tuberculosis H37Rv in the primary screen” value in the assay on M. tuberculosis H37Rv [1] is “demonstrated activity”. Besides, the MIC99 with M. tuberculosis H37Rv [2] (M. tuberculosis H37Rv) came to 3.13 µg/mL (≈ 5.81 µM).

For orientation: MIC means the smallest concentration in the dilution series that meets the test's criterion for growth inhibition. In the case of `CCOC(=O)Nc1cc(NC(C)CCCN(CC)CC)c2ncc(-c3ccc(Cl)cc3)nc2n1.Cl` (centres unmarked) [Compound A5], in the assay on M. tuberculosis H37Rv [1] (setting [3]), the “% Inh” value stood at 99%. Also, the MIC with M. tuberculosis H37Rv [2] (setting [4]) was determined as 1.56 µg/mL.

`CCOC(=O)Nc1cc(NC(C)CCCN(CC)CC)c2nc(-c3ccc(Cl)cc3)c(-c3ccc(Cl)cc3)nc2n1` (centres unmarked) [Compound A6]: the “% Inh” value in the assay on M. tuberculosis H37Rv [1] (setting [3]) came to 99%. Moreover, the MIC with M. tuberculosis H37Rv [2] (setting [4]) turned out to be 1.56 µg/mL (≈ 2.62 µM).

Regarding `CCOC(=O)Nc1cc2c(c(N)n1)N=C(c1ccc(OCc3ccccc3)cc1)[C@H](C)N2` [Compound A8], in the assay with M. tuberculosis H37Rv [1] (setting [3]), the “% Inh” value was found to be 99%. Further, in the assay on M. tuberculosis H37Rv [2] (setting [4]), the MIC was 6.25 µg/mL (≈ 14.5 µM).

Regarding `CCOC(=O)Nc1cc2c(c(N)n1)N=C(c1ccc(OCc3ccccc3)cc1)[C@@H](C)N2` [Compound A9], in the assay on M. tuberculosis H37Rv [1] (setting [3]), the “% Inh” value is 99%. In addition, in the assay on M. tuberculosis H37Rv [2] (setting [4]), the minimal inhibitory concentration (MIC) is 6.25 µg/mL (≈ 14.5 µM).

As for `O=C(Nc1cc(Cl)cc(NC(=O)Oc2ccccc2)n1)Oc1ccccc1` [Compound A36], the “% Inh” value in the assay on M. tuberculosis H37Rv [1] (setting [3]) was determined as 97%. The compound further yielded an MIC with M. tuberculosis H37Rv [2] (H37RV) of 12.5 µg/mL (≈ 32.6 µM).

As for `CCOC(=O)Nc1cc(NC(C)CCCN(CC)CC)c2ncc(-c3ccccc3)nc2n1.Cl.Cl` (centres unmarked) [Compound A37], in the assay with M. tuberculosis H37Rv [1] (setting [3]), the “% Inh” value is 96%. Moreover, the MIC in the assay on M. tuberculosis H37Rv [2] (setting [4]) came to 12.5 µg/mL.

`CCOC(=O)Nc1cc2c(c(N)n1)N=C(c1ccccc1)C(C)(C)S2.Cl` [Compound A40]: the “% Inh” value in the assay with M. tuberculosis H37Rv [1] (setting [3]) was 95%. In addition, the MIC with M. tuberculosis H37Rv [2] (setting [4]) is over 6.25 µg/mL.

Consider `CCOC(=O)Nc1cc2c(c(N)n1)N=C(c1cc(OC)cc(OC)c1)[C@H](C)O2` [Compound A42], for which the “% Inh” value with M. tuberculosis H37Rv [1] (setting [3]) came to 95%. Also, in the assay on M. tuberculosis H37Rv [2] (setting [4]), the MIC stood at 12.5 µg/mL (≈ 32.3 µM).

For the compound `CCOC(=O)Nc1cc(Nc2ccc(Cl)cc2)c2nccnc2n1` [Compound A43], the “% Inh” value with M. tuberculosis H37Rv [1] (setting [3]) is listed as 94%. The minimum inhibitory concentration (MIC) in the assay with M. tuberculosis H37Rv [2] (setting [4]) was 6.25 µg/mL (≈ 18.2 µM).

With `CCOC(=O)Nc1cc(NC/C(=N\O)C23CC4CC(CC(C4)C2)C3)c([N+](=O)[O-])c(N)n1` [Compound A47], the “% Inh” value with M. tuberculosis H37Rv [1] (setting [3]) was 93%. Besides, in the assay with M. tuberculosis H37Rv [2] (setting [4]), the MIC was over 12.5 µg/mL.

`CCOC(=O)Nc1cc(NC(C)CCCN(CC)CC)c2nc(-c3ccc([N+](=O)[O-])cc3)cnc2n1` (centres unmarked) [Compound A50]: in the assay on M. tuberculosis H37Rv [1] (setting [3]), the “% Inh” value is on record as 92%. The compound further came in with an MIC in the assay on M. tuberculosis H37Rv [2] (H37RV) of over 6.25 µg/mL.

With `Nc1nc(NC(=O)OCc2ccccc2)cc(Cl)c1[N+](=O)[O-]` [Compound A286], in the assay with M. tuberculosis H37Rv [1] (setting [3]), the “% Inh” value amounted to 0%.

`CCOC(=O)Nc1cc2c(c(N)n1)N=C(CN(C)c1ccc(C(=O)OC)cc1)CN2` [Compound A288]: the “% Inh” value with M. tuberculosis H37Rv [1] (setting [3]) worked out at 0%.

For the compound `CCOC(=O)Nc1cc2ncc(CNc3ccc(C(=O)OCC)cc3)nc2c(N)n1` [Compound A289], in the assay on M. tuberculosis H37Rv [1] (setting [3]), the “% Inh” value was 0%.

For `CCOC(=O)Nc1cc(NC/C(CNc2ccc(C(=O)OCC)cc2)=N/O)c([N+](=O)[O-])c(N)n1` [Compound A291], the “% Inh” value with M. tuberculosis H37Rv [1] (setting [3]) was 0%.

On to `CCOC(=O)Nc1cc(NCC(=O)COc2ccc(C(=O)OCC)cc2)c([N+](=O)[O-])c(N)n1` [Compound A292], for which the “% Inh” value with M. tuberculosis H37Rv [1] (setting [3]) came to 0%.

On to `CCOC(=O)N(Cc1ccccc1)c1cc(Cl)c([N+](=O)[O-])c(N)n1` [Compound A293], for which the “% Inh” value in the assay on M. tuberculosis H37Rv [1] (setting [3]) was determined as 0%.

For `CCOC(=O)N(Cc1ccc(S(N)(=O)=O)cc1)c1cc(Cl)c([N+](=O)[O-])c(N)n1` [Compound A294], the “% Inh” value with M. tuberculosis H37Rv [1] (setting [3]) is reported as 0%.

As to `CCOC(=O)Nc1cc(NC(c2ccccc2)c2ccccc2)c([N+](=O)[O-])c(OCC(=O)c2ccc(Br)cc2)n1` [Compound A295], the “% Inh” value in the assay with M. tuberculosis H37Rv [1] (setting [3]) came to 0%.

In the case of `CCOC(=O)Nc1cc2[nH]c(-c3cccc(C)c3)nc2c(N(CCc2ccccc2)Cc2ccccc2)n1` [Compound A297], in the assay with M. tuberculosis H37Rv [1] (setting [3]), the “% Inh” value stood at 0%.

As for `CCOC(=O)Nc1cc(NC(c2ccccc2)c2ccccc2)c([N+](=O)[O-])c(O)n1` [Compound A298], in the assay with M. tuberculosis H37Rv [1] (setting [3]), the “% Inh” value is 0%.

Take `CCOC(=O)Nc1cc(NC(c2ccccc2)c2ccccc2)c([N+](=O)[O-])c(Cl)n1` [Compound A299]: the “% Inh” value in the assay on M. tuberculosis H37Rv [1] (setting [3]) was 0%.

With `CCOC(=O)Nc1cc(NCC(=O)c2ccc(-c3ccccc3)cc2)c([N+](=O)[O-])c(N)n1` [Compound A300], the “% Inh” value in the assay on M. tuberculosis H37Rv [1] (setting [3]) was 0%.

As for `CCOC(=O)Nc1cc(NC(CC)C(O)c2ccccc2)c([N+](=O)[O-])c(N)n1` (centres unmarked) [Compound A301], in the assay with M. tuberculosis H37Rv [1] (setting [3]), the “% Inh” value is listed as −1%.

As for `CCCCC(Nc1cc(NC(=O)OCC)nc(N)c1[N+](=O)[O-])C(C)O` (centres unmarked) [Compound A302], the “% Inh” value in the assay on M. tuberculosis H37Rv [1] (setting [3]) is on record as −1%.

For `CCOC(=O)Nc1cc(NC(C)C(O)c2ccc(O)cc2)c([N+](=O)[O-])c(N)n1` (centres unmarked) [Compound A303], the “% Inh” value in the assay with M. tuberculosis H37Rv [1] (setting [3]) was −2%.

On to `CCOC(=O)Nc1cc(N[C@@H](C)C(=O)c2ccc(O)cc2)c([N+](=O)[O-])c(N)n1` [Compound A304], for which the “% Inh” value with M. tuberculosis H37Rv [1] (setting [3]) is recorded as −2%.

As for `CCOC(=O)Nc1cc(N[C@@H](C)C(=O)c2ccc(O)cc2)c([N+](=O)[O-])c(N)n1` [Compound A305], in the assay on M. tuberculosis H37Rv [1], the “% Inh” value is recorded as −2%.

As to `CCOC(=O)Nc1cc2c(c(N)n1)N=C(c1ccccc1)C(CC)N2` (centres unmarked) [Compound A306], the “% Inh” value in the assay with M. tuberculosis H37Rv [1] (setting [3]) is given as −3%.

As to `CCOC(=O)Nc1cc(NC(CC)C(=O)c2ccccc2)c([N+](=O)[O-])c(N)n1` (centres unmarked) [Compound A307], the “% Inh” value in the assay with M. tuberculosis H37Rv [1] (setting [3]) is −8%.

With `CCOC(=O)Nc1cc(NCCC(=O)c2ccccc2)c([N+](=O)[O-])c(N)n1` [Compound A308], in the assay on M. tuberculosis H37Rv [1] (setting [3]), the “% Inh” value was −8%.

In the case of `CCOC(=O)Nc1cc(N[C@@H](C)C(O)c2ccccc2)c([N+](=O)[O-])cn1` (some centres unmarked) [Compound A309], the “% Inh” value with M. tuberculosis H37Rv [1] (setting [3]) was −10%.

Turning to `CCOC(=O)Nc1cc(N[C@H](C)[C@@H](O)c2ccccc2)c(N)c(N)n1` [Compound A310], the “% Inh” value with M. tuberculosis H37Rv [1] (setting [3]) is reported as −15%.

For `CCOC(=O)Nc1cc2c(c(NC(c3ccccc3)c3ccccc3)n1)N=C(c1ccccc1)C1NC=CN21` (centres unmarked) [Compound A311], the “% Inh” value in the assay on M. tuberculosis H37Rv [1] (setting [3]) is recorded as −16%.

On to `CCOC(=O)Nc1cc(NC(C)[C@H](O)c2ccccc2)c(N)c(N)n1` (some centres unmarked) [Compound A312], for which, in the assay on M. tuberculosis H37Rv [1] (setting [3]), the “% Inh” value was −19%.

Take `CCOC(=O)Nc1cc(NC(C)C(=O)Cc2ccccc2)c([N+](=O)[O-])c(N)n1` (centres unmarked) [Compound A313]: the “% Inh” value in the assay on M. tuberculosis H37Rv [1] (setting [3]) was −21%.

Regarding `CCOC(=O)Nc1cc(NC(C)C(=O)c2ccccc2)c([N+](=O)[O-])cn1` (centres unmarked) [Compound A314], the “% Inh” value in the assay on M. tuberculosis H37Rv [1] (setting [3]) is −36%.

For the compound `CCOC(=O)Nc1cc2c(c(N)n1)N=C(CN(C)c1ccc(OC)cc1)CN2` [SRI-5713, (5-Amino-3-{[(4-methoxy-phenyl)-methyl-amino]-methyl}-1,2-dihydro-pyrido[3,4-b]pyrazin-7-yl)-carbamic acid ethyl ester], the inhibition of growth at 12.5 µg/mL in the assay with M. tuberculosis H37Rv [1] (M. tuberculosis H37Rv) worked out at 20%.

With `CCCCNC(=O)Oc1ccc(C2=Nc3c(cc(NC(=O)OCC)nc3N)N[C@H]2C)cc1` [SRI-20158, [5-Amino-3-(4-butylcarbamoyloxy-phenyl)-2-methyl-1,2-dihydro-pyrido[3,4-b]pyrazin-7-yl]-carbamic acid ethyl ester], the inhibition of growth at 12.5 µg/mL in the assay on M. tuberculosis H37Rv [1] (M. tuberculosis H37Rv) turned out to be 10%.

The record behind these values is US7718651B2, “Inhibitors of FtsZ and uses thereof” (priority 2002, dated 2010).
